The supplement of paper PMC8837787

System: Saccharomyces cerevisiae ABC16-Green Monster
Experiment: growth inhibition at single dose (up to 150 µM), below the 70% cut-off for dose-response; higher = more potent
Settings: 18 h; 30 °C; YPD
How it was run: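 Percent growth inhibition is the reported value. Drug-sensitive S. cerevisiae ABC16-Green Monster cultures in log phase (OD600 0.1–0.2), 200 µl per well in 96-well plates, received each library compound once at 150 µM in biological duplicates, with untreated cultures run alongside. Growth was followed by OD600 at 0 h and after 18 h at 30 °C. Dose-response was not done for compounds below 70% in both replicates.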

CCOc1ccc(OCC(=O)Nc2cc(C)cc(C)c2)cc1
growth inhibition at single dose: < 70%

Cc1cc(C(=O)NCc2nnc3ccccn23)c(C)n1C1CCCCC1
growth inhibition at single dose: < 70%

N#Cc1ccc(NC(=O)Cn2ncc(Cl)c(Cl)c2=O)cc1
growth inhibition at single dose: < 70%

COc1ccccc1NC(=O)NCc1nc(-c2ccccc2)c[nH]1
growth inhibition at single dose: < 70%

O=C1CC(O)(C(F)(F)C(F)(F)F)Oc2ccccc21 (stereo not drawn)
growth inhibition at single dose: < 70%

C=C(C)CCC(C)N1CCC(N2CCC(C(=O)NCCc3ccccc3)CC2)CC1 (stereo not drawn)
growth inhibition at single dose: < 70%

COc1ccc(-c2c(C)nn3c(N)c(C#N)cnc23)cc1OC
growth inhibition at single dose: < 70%

O=c1nc(/C=C/c2ccc(Cl)cc2)oc2ccccc12
growth inhibition at single dose: < 70%

O=C(Nc1ccnc(-c2cccnc2)n1)c1cc(C(F)(F)F)cc(C(F)(F)F)c1
growth inhibition at single dose: < 70%

C=CCNC(=O)C(C)Sc1nnc(-c2ccc(C)cc2)c(-c2ccc(C)cc2)n1 (stereo not drawn)
growth inhibition at single dose: < 70%

CCN1CCN(Cc2ccc(NC(=O)c3cc4ccc5cccnc5c4[nH]3)cc2)CC1
growth inhibition at single dose: < 70%

COc1ccc([N+](=O)[O-])cc1C(=O)Nc1nc2c(s1)CCCCC2
growth inhibition at single dose: < 70%

O=C(Nc1ccc(-c2nc3cc(NC(=O)c4ccc(Cl)cc4)ccc3[nH]2)cc1)c1ccc(Cl)cc1
growth inhibition at single dose: < 70%

CC1=Nc2ccc(Cl)cc2C(c2ccccc2)N1CCNC(=O)CN(C)C (stereo not drawn)
growth inhibition at single dose: < 70%

Cc1nc2ccccn2c1C(=O)NCc1ccc(Cl)cc1
growth inhibition at single dose: < 70%

N#CCc1c(C#N)c(N)nc(Nc2ccc(F)cc2F)c1C#N
growth inhibition at single dose: < 70%

COc1cc2c(cc1NC(=O)C(C)N1CCC(C(N)=O)CC1)oc1ccccc12 (stereo not drawn)
growth inhibition at single dose: < 70%

c1ccc2c(c1)CN(CC1CC1)CC1(CCN(Cc3c[nH]c4cnccc34)CC1)O2
growth inhibition at single dose: < 70%

COCC(C)NC(=O)CSc1ncnc2sc(-c3ccccc3)cc12 (stereo not drawn)
growth inhibition at single dose: < 70%

CC(C)(C)c1ccc(C(=O)Nc2nc3ccccc3s2)cc1
growth inhibition at single dose: < 70%

Cc1cc(=O)n2nc(CSc3nc4ccc(Cl)cc4c(=O)n3CC(C)C)sc2n1
growth inhibition at single dose: < 70%

COc1ccc(N2CCN(C(CNC(=O)CC(C)(C)C)c3ccc4c(c3)OCO4)CC2)cc1 (stereo not drawn)
growth inhibition at single dose: < 70%

O=C(Cn1ncc(Cl)c(Cl)c1=O)Nc1cc(S(=O)(=O)N2CCOCC2)ccc1Cl
growth inhibition at single dose: < 70%

COc1ccc(N(Cc2nc(-c3cccs3)oc2C)S(=O)(=O)c2cccs2)cc1
growth inhibition at single dose: < 70%

CCCS(=O)(=O)N1CCC(CO)(Cc2ccccc2C(F)(F)F)CC1
growth inhibition at single dose: < 70%

Cc1cc(C)n(-c2nc(-c3ccccc3)cc(N(C)CCO)n2)n1
growth inhibition at single dose: < 70%

Cc1cc(Nc2cccc(C(F)(F)F)c2)n2ncc(C#N)c2n1
growth inhibition at single dose: < 70%

O=S(=O)(c1ccc(Cl)cc1)N1CCN(C(=S)NCc2ccco2)CC1
growth inhibition at single dose: < 70%

Cc1cc(C(=O)Nc2ccc(Cl)cc2)c(C)n1-c1ccccc1
growth inhibition at single dose: < 70%

Cc1nn2c(O)c3c(nc2c1-c1ccc(F)cc1)CCCC3
growth inhibition at single dose: < 70%

COc1cccc(OCC(=O)c2ccc(Br)cc2)c1
growth inhibition at single dose: < 70%

Cc1cc(C)n2ncc(C(=O)Nc3cccc(/C=C/c4ccccn4)c3)c2n1
growth inhibition at single dose: < 70%

CCCN(CCC)CCCNC(=O)c1cc2c(-c3ccc(OC)c(OC)c3)nn(C)c2s1
growth inhibition at single dose: < 70%

O=C(CC1Sc2ccccc2NC1=O)NCCCn1ccc2ccccc21 (stereo not drawn)
growth inhibition at single dose: < 70%

CC1CN(C(=O)c2sc3ccccc3c2Cl)CC(C)O1 (stereo not drawn)
growth inhibition at single dose: < 70%

CCOC(=O)c1ccc(N2CCN(C(C)c3nc(C(C)C)no3)CC2)nc1 (stereo not drawn)
growth inhibition at single dose: < 70%

O=C(CCl)NCCOc1ccc(Cl)cc1Cl
growth inhibition at single dose: < 70%

COc1ccc(CN2CCN(Cc3ccccc3)CC2)c(O)c1
growth inhibition at single dose: < 70%
